Measurements: patent publication US8076352B2, “Administration of carboline derivatives useful in the treatment of cancer and other diseases” (PTC Therapeutics, Inc., priority 2004, dated 2011)

System: hypoxia-inducible endogenous VEGF expression in HeLa cells
Test: Hypoxia-inducible endogenous VEGF expression, VEGF ELISA of conditioned media (dose-response EC50)
Format: cell-based
Method: The ability of the compounds of the invention to modulate hypoxia-inducible endogenous VEGF expression may be analyzed as follows. VEGF protein levels may be monitored by an ELISA assay (R&D Systems). Briefly, HeLa cells may be cultured for 24-48 hours under hypoxic conditions (1% O2, 5% CO2, balanced with nitrogen) in the presence or absence of a compound of the invention. The conditioned media may then be assayed by ELISA, and the concentration of VEGF calculated from the standard ELISA curve of each assay.
A dose-response analysis may be performed using the ELISA assay and conditions described above. The conditions for the dose-response ELISA are analogous to those described above. A series of, e.g., seven different concentrations may be analyzed. […] Dose-response curves may be plotted using percentage inhibition versus concentration of the compound, and EC50 and CC50 values may be generated for each compound with the maximal inhibition set as 100% and the minimal inhibition as 0%.

[1] = Homo sapiens, HeLa cells under hypoxic conditions
[2] = Homo sapiens, HeLa cells, hypoxic conditions (1% O2, 5% CO2)

SMILES	EC50 [1] [nM]	other results
CCOC(=O)N1CCc2c([nH]c3ccc(Br)cc23)C1c1ccc(C)cc1 (centres unmarked) [#8]	< 8	–
CCOC(=O)N1CCc2c([nH]c3ccc(Cl)cc23)C1c1ccc([N+](=O)[O-])cc1 (centres unmarked) [#74]	8 to 40	–
COc1ccc(OC(=O)N2CCc3c([nH]c4ccc(Br)cc34)[C@@H]2c2ccc(Cl)cc2)cc1 [#332]	> 1000	–
O=C(Oc1ccc(F)cc1)N1CCc2c([nH]c3ccc(Cl)cc23)C1c1ccc(OCCNc2nccs2)cc1 (centres unmarked) [#837]	–	EC50 [2]: < 8 nM
Cc1cnc(NCCOc2ccc(C3c4[nH]c5ccc(Cl)cc5c4CCN3C(=O)Oc3ccc(F)cc3)cc2)s1 (centres unmarked) [#838]	–	EC50 [2]: < 8 nM
O=C(Oc1ccc(Cl)cc1)N1CCc2c([nH]c3ccc(Cl)cc23)C1c1ccc(OCCNc2nccs2)cc1 (centres unmarked) [#841]	–	EC50 [2]: < 8 nM
Cc1cnc(NCCOc2ccc(C3c4[nH]c5ccc(Cl)cc5c4CCN3C(=O)Oc3ccc(Cl)cc3)cc2)s1 (centres unmarked) [#842]	–	EC50 [2]: < 8 nM
O=C(Oc1ccc(Cl)cc1)N1CCc2c([nH]c3ccc(Cl)cc23)C1c1ccc(OCCNc2cccnc2)cc1 (centres unmarked) [#843]	–	EC50 [2]: < 8 nM
COc1ccc(C2c3[nH]c4ccc(Cl)cc4c3CCN2c2cnccn2)cc1 (centres unmarked) [Compound 1]	8 to 40	–
CCOC(=O)N1CCc2c([nH]c3ccc(Cl)cc23)C1c1ccc(OC)cc1 (centres unmarked) [Compound 2]	< 8	–
CCOC(=O)N1CCc2c([nH]c3ccc(Br)cc23)C1c1ccc(Br)cc1 (centres unmarked) [Compound 3]	< 8	–
CCOC(=O)N1CCc2c([nH]c3ccc(Br)cc23)C1c1ccc(Cl)cc1 (centres unmarked) [Compound 4]	< 8	–
CCOC(=O)N1CCc2c([nH]c3ccc(Cl)cc23)C1c1cccc(F)c1F (centres unmarked) [Compound 5]	< 8	–
O=C(OCCCl)N1CCc2c([nH]c3ccc(Cl)cc23)C1c1cccc(F)c1F (centres unmarked) [Compound 6]	< 8	–
CCOC(=O)N1CCc2c([nH]c3ccc(Cl)cc23)C1c1ccc(Cl)cc1 (centres unmarked) [Compound 11]	< 8	–
N#Cc1ccc(C2c3[nH]c4ccc(Cl)cc4c3CCN2C(=O)OCCCl)cc1 (centres unmarked) [Compound 12]	< 8	–
CCCOC(=O)N1CCc2c([nH]c3ccc(Cl)cc23)C1c1ccc(C(C)C)cc1 (centres unmarked) [Compound 13]	< 8	–
CCOC(=O)N1CCc2c([nH]c3ccc(Cl)cc23)C1c1ccc(C(C)C)cc1 (centres unmarked) [Compound 14]	< 8	–
O=C(OCCCl)N1CCc2c([nH]c3ccc(Cl)cc23)C1c1cccc(C(F)(F)F)c1 (centres unmarked) [Compound 15]	< 8	–
CCOC(=O)N1CCc2c([nH]c3ccc(Br)cc23)C1c1cccc(Cl)c1 (centres unmarked) [Compound 16]	< 8	–
COc1ccc(C2c3[nH]c4ccc(Cl)cc4c3CCN2C(=O)Oc2ccc(C)cc2)cc1 (centres unmarked) [Compound 17]	< 8	–
CC(C)c1ccc(C2c3[nH]c4ccc(Cl)cc4c3CCN2C(=O)OCCCl)cc1 (centres unmarked) [Compound 18]	< 8	–
CCCOC(=O)N1CCc2c([nH]c3ccc(Cl)cc23)C1c1ccc(C(F)(F)F)cc1 (centres unmarked) [Compound 19]	< 8	–
CCOC(=O)N1CCc2c([nH]c3ccc(Cl)cc23)C1c1cccc(Cl)c1 (centres unmarked) [Compound 20]	< 8	–

SMILES	EC50 [1] [nM]	other results
CCOC(=O)N1CCc2c([nH]c3ccc(Cl)cc23)C1c1ccc(F)cc1F (centres unmarked) [Compound 21]	< 8	–
O=C(OCCCl)N1CCc2c([nH]c3ccc(Cl)cc23)C1c1cc(F)ccc1F (centres unmarked) [Compound 22]	< 8	–
CCOC(=O)N1CCc2c([nH]c3ccc(Cl)cc23)C1c1ccc(F)cc1 (centres unmarked) [Compound 23]	< 8	–
CC(C)OC(=O)N1CCc2c([nH]c3ccc(Cl)cc23)C1c1ccc(C(C)C)cc1 (centres unmarked) [Compound 24]	< 8	–
CC(C)OC(=O)N1CCc2c([nH]c3ccc(Cl)cc23)C1c1ccc(C(F)(F)F)cc1 (centres unmarked) [Compound 26]	< 8	–
CCOC(=O)N1CCc2c([nH]c3ccc(Br)cc23)C1c1ccccc1 (centres unmarked) [Compound 27]	< 8	–
CCCOC(=O)N1CCc2c([nH]c3ccc(Cl)cc23)C1c1ccc(OC)cc1 (centres unmarked) [Compound 28]	< 8	–
CCOC(=O)N1CCc2c([nH]c3ccc(Br)cc23)C1c1cccc(F)c1F (centres unmarked) [Compound 29]	< 8	–
COc1ccc(C2c3[nH]c4ccc(Cl)cc4c3CCN2C(=O)OCC(C)C)cc1 (centres unmarked) [Compound 30]	< 8	–
CCOC(=O)N1CCc2c([nH]c3ccc(Cl)cc23)C1c1ccc(C(F)(F)F)cc1 (centres unmarked) [Compound 31]	< 8	–
CCOC(=O)N1CCc2c([nH]c3ccc(Br)cc23)C1c1cccc(C(F)(F)F)c1 (centres unmarked) [Compound 32]	< 8	–
O=C(OCCCl)N1CCc2c([nH]c3ccc(Cl)cc23)C1c1ccc(C(F)(F)F)cc1 (centres unmarked) [Compound 33]	< 8	–
COC(=O)N1CCc2c([nH]c3ccc(Cl)cc23)C1c1ccc(C(C)C)cc1 (centres unmarked) [Compound 34]	< 8	–
O=C(OCCCl)N1CCc2c([nH]c3ccc(Cl)cc23)C1c1ccc(F)c(F)c1 (centres unmarked) [Compound 35]	< 8	–
Cc1ccc(C2c3[nH]c4ccc(Cl)cc4c3CCN2C(=O)OC(C)C)cc1 (centres unmarked) [Compound 36]	< 8	–
CCOC(=O)N1CCc2c([nH]c3ccc(Cl)cc23)C1c1cccc(C(F)(F)F)c1 (centres unmarked) [Compound 37]	< 8	–
CCOC(=O)N1CCc2c([nH]c3ccc(Cl)cc23)C1c1ccccc1 (centres unmarked) [Compound 38]	< 8	–
CCOC(=O)N1CCc2c([nH]c3ccc(Cl)cc23)C1c1ccc(F)c(F)c1 (centres unmarked) [Compound 39]	< 8	–
CC(C)OC(=O)N1CCc2c([nH]c3ccc(Cl)cc23)C1c1ccc(Cl)cc1 (centres unmarked) [Compound 40]	< 8	–
CCCOC(=O)N1CCc2c([nH]c3ccc(Cl)cc23)C1c1ccc(Br)cc1 (centres unmarked) [Compound 41]	< 8	–
CCCOC(=O)N1CCc2c([nH]c3ccc(Cl)cc23)C1c1ccc(C)cc1 (centres unmarked) [Compound 42]	< 8	–
COC(=O)N1CCc2c([nH]c3ccc(Cl)cc23)C1c1ccc(OC)cc1 (centres unmarked) [Compound 43]	< 8	–
CCOC(=O)N1CCc2c([nH]c3ccc(Br)cc23)C1c1cccc(Br)c1 (centres unmarked) [Compound 44]	< 8	–
CC(C)OC(=O)N1CCc2c([nH]c3ccc(Cl)cc23)C1c1ccc(C#N)cc1 (centres unmarked) [Compound 45]	< 8	–

SMILES	EC50 [1] [nM]	other results
COC(=O)N1CCc2c([nH]c3ccc(Cl)cc23)C1c1ccc(Br)cc1 (centres unmarked) [Compound 46]	8 to 40	–
CC(C)OC(=O)N1CCc2c([nH]c3ccc(Cl)cc23)C1c1ccc(Br)cc1 (centres unmarked) [Compound 47]	8 to 40	–
Cc1ccc(C2c3[nH]c4ccc(Cl)cc4c3CCN2C(=O)OCCCl)cc1 (centres unmarked) [Compound 48]	8 to 40	–
CCCOC(=O)N1CCc2c([nH]c3ccc(Cl)cc23)C1c1ccc(Cl)cc1 (centres unmarked) [Compound 49]	8 to 40	–
CC(=O)N1CCc2c([nH]c3ccc(Br)cc23)C1c1ccc(Cl)cc1 (centres unmarked) [Compound 50]	8 to 40	–
CCOC(=O)N1CCc2c([nH]c3ccc(Cl)cc23)C1c1cccc(F)c1 (centres unmarked) [Compound 51]	8 to 40	–
COC(=O)N1CCc2c([nH]c3ccc(Cl)cc23)C1c1ccc(C)cc1 (centres unmarked) [Compound 52]	8 to 40	–
COC(=O)N1CCc2c([nH]c3ccc(Cl)cc23)C1c1cccc(F)c1F (centres unmarked) [Compound 53]	8 to 40	–
CCOC(=O)N1CCc2c([nH]c3ccc(Cl)cc23)C1c1ccc(Br)cc1 (centres unmarked) [Compound 54]	8 to 40	–
O=C(OCCCl)N1CCc2c([nH]c3ccc(Cl)cc23)C1c1ccc(Cl)cc1 (centres unmarked) [Compound 55]	8 to 40	–
CC(C)OC(=O)N1CCc2c([nH]c3ccc(Cl)cc23)C1c1ccc([N+](=O)[O-])cc1 (centres unmarked) [Compound 56]	8 to 40	–
COc1ccc(C2c3[nH]c4ccc(Cl)cc4c3CCN2C(=O)OC(C)C)cc1 (centres unmarked) [Compound 57]	8 to 40	–
O=C(OCCCl)N1CCc2c([nH]c3ccc(Cl)cc23)C1c1ccc(Br)cc1 (centres unmarked) [Compound 58]	8 to 40	–
CCOC(=O)N1CCc2c([nH]c3ccc(Br)cc23)C1c1ccc([N+](=O)O)cc1 (centres unmarked) [Compound 59]	–	EC50 (HeLa cells under hypoxic conditions): 8 to 40 nM
COc1ccc(C2c3[nH]c4ccc(Cl)cc4c3CCN2C(=O)Oc2ccccc2)cc1 (centres unmarked) [Compound 60]	8 to 40	–
COc1ccc(C2c3[nH]c4ccc(Cl)cc4c3CCN2C(=O)OCCCl)cc1 (centres unmarked) [Compound 61]	8 to 40	–
COC(=O)N1CCc2c([nH]c3ccc(Cl)cc23)C1c1ccc(C(F)(F)F)cc1 (centres unmarked) [Compound 62]	8 to 40	–
CCOC(=O)N1CCc2c([nH]c3ccc(Br)cc23)C1c1cc(F)cc(F)c1 (centres unmarked) [Compound 64]	8 to 40	–
COC(=O)N1CCc2c([nH]c3ccc(Br)cc23)C1c1ccccc1 (centres unmarked) [Compound 65]	8 to 40	–
CCCOC(=O)N1CCc2c([nH]c3ccc(Cl)cc23)C1c1ccc([N+](=O)[O-])cc1 (centres unmarked) [Compound 66]	8 to 40	–
CC(C)COC(=O)N1CCc2c([nH]c3ccc(Br)cc23)C1c1ccccc1 (centres unmarked) [Compound 67]	8 to 40	–
COC(=O)N1CCc2c([nH]c3ccc(Cl)cc23)C1c1ccc(F)cc1 (centres unmarked) [Compound 68]	8 to 40	–
CCCOC(=O)N1CCc2c([nH]c3ccc(Cl)cc23)C1c1cccc(Br)c1 (centres unmarked) [Compound 69]	8 to 40	–
